Results reported in PubChem BioAssay AID1996.
Values after ≈ are worked out from the molar mass of the structure shown.

Settings: buffer; pH 7.4; 200.0 µM

SMILES | solubility kinetic
CC1(C)Cc2ccccc2-c2[nH]c(=S)[nH]c(=O)c21 | 30.1 µg/mL (≈ 117 µM)
c1ccc(-c2ccccc2OCCCCn2ccnc2)cc1 | 31.3 µg/mL (≈ 107 µM)
O=C(COC(=O)c1ccc2c(c1)OCCO2)NCCc1ccccc1 | 11.7 µg/mL (≈ 34.3 µM)
N#Cc1cccc(NC(=O)CSc2n[nH]c(=O)[nH]c2=O)c1 | > 45.5 µg/mL
CCCC(C)NC(=S)Nc1cc(C)cc(C)c1 (stereo unspecified) | 25.2 µg/mL (≈ 101 µM)
COc1ccc(C(=O)OCC(=O)NC(C)CCc2ccccc2)cc1 (stereo unspecified) | 10.1 µg/mL (≈ 29.6 µM)
CCc1ccc(/C=C(\C#N)C(=O)NC2CCS(=O)(=O)C2)cc1 (stereo unspecified) | 7.8 µg/mL (≈ 24.5 µM)
Cc1ccccc1Nc1nc(N)nc(CSc2nncn2C)n1 | > 49.3 µg/mL
O=C(COc1ccccc1)N1CCN=C1SCc1cccc(F)c1 | 3.4 µg/mL (≈ 9.87 µM)
Cc1noc(C)c1S(=O)(=O)Nc1cccc(C(F)(F)F)c1 | > 48 µg/mL
O=C(COC(=O)c1cc(Cl)ccc1O)Nc1ccccc1C(=O)NC1CC1 | 2 µg/mL (≈ 5.14 µM)
Nc1cccc(C(=O)Nc2cccc3ncccc23)c1 | > 39.5 µg/mL
OCCNC(=S)c1ccccc1 | 25.7 µg/mL (≈ 142 µM)
O=C(NCCN1CCOCC1)c1ccc(Cl)c(S(=O)(=O)NCc2ccccc2)c1 | 63.2 µg/mL (≈ 144 µM)
CNC(=S)NC1CC2CCCC(C1)N2Cc1ccc(C)cc1 (stereo unspecified) | 45.9 µg/mL (≈ 145 µM)
CCOc1ccccc1NC(=O)NCc1ccc2c(c1)OCO2 | 0.8 µg/mL (≈ 2.55 µM)
O=C(c1noc2c1CCCC2)N1CCc2ccccc2C1 | 40.8 µg/mL (≈ 145 µM)
COc1ccc(C(=O)CCC(=O)Nc2cccnc2)cc1OC | > 47.2 µg/mL
Cc1cc(NC(=O)CC2CCCC2)ccc1Br | 1.6 µg/mL (≈ 5.4 µM)
CCn1c(CCc2ccccc2)nnc1SCC(N)=O | > 43.6 µg/mL
O=C(CN1CCN(c2ccccc2)CC1)N1CCc2ccccc21 | 7 µg/mL (≈ 21.8 µM)
O=C(/C=C/c1ccco1)Nc1nc(-c2ccc(F)c(F)c2)cs1 | < 0.4 µg/mL

SMILES | solubility kinetic
CCOc1ccccc1/C=C(\C#N)C1=CCCC1 | > 35.9 µg/mL
O=C(NC(=S)NC1CCCCC1)c1ccc(F)cc1 | 2.1 µg/mL (≈ 7.49 µM)
COc1ccc(NC(=O)NCCCCc2ccccc2)c(OC)c1 | 0.7 µg/mL (≈ 2.13 µM)
CCCN1C(=O)c2ccccc2NC1c1ccc(Cl)cc1 (stereo unspecified) | 3.2 µg/mL (≈ 10.6 µM)
Cc1cc(C)c(C(=O)NNC(=O)c2cccnc2)c(C)c1 | > 42.5 µg/mL
CN(Cc1ccccc1)S(=O)(=O)c1ccc(Cl)c(C(=O)OCC(=O)NC2CCS(=O)(=O)C2)c1 (stereo unspecified) | 18 µg/mL (≈ 35 µM)
Cc1ccc(S(=O)(=O)N2CC=C(C(=O)NCCC(C)C)CC2)cc1 | 41.7 µg/mL (≈ 119 µM)
Cc1cc(C(=O)OCC(=O)N2CCOCC2)ccc1[N+](=O)[O-] | > 46.2 µg/mL
CN(CC(=O)Nc1ccc2c(c1)OCO2)CC(=O)Nc1ccc(F)c(F)c1F | > 59.3 µg/mL
COc1cccc(C(=O)NC(C)c2cccc3ccccc23)c1OC (stereo unspecified) | 19 µg/mL (≈ 56.6 µM)
O=c1[nH]cccc1-c1nc2ccccc2n1Cc1cccc(F)c1 | 2.4 µg/mL (≈ 7.52 µM)
COc1ccc2nc(NC(=O)c3ccccc3C(=O)O)sc2c1 | > 49.3 µg/mL
NS(=O)(=O)c1cccc(NC(=O)Nc2ccc(Cl)cc2)c1 | 10.7 µg/mL (≈ 32.8 µM)
O=S(=O)(NCCc1ccc(Cl)cc1)c1cccs1 | > 45.3 µg/mL
CSc1ccc(CNCC2CCCO2)cc1.Cl (stereo unspecified) | 37.1 µg/mL
Cc1cc(C(=O)Nc2c(F)cc(F)cc2Br)cs1 | 25.9 µg/mL (≈ 78 µM)
CCOc1ccc(C2Nc3ccccc3C(CC)(CC)O2)cc1 (stereo unspecified) | 2.1 µg/mL (≈ 6.74 µM)
Cc1nc(N=C(N)N)nc2ccccc12 | > 30.2 µg/mL
COc1ccc([N+](=O)[O-])cc1NC(=O)C1CCCNC1=O (stereo unspecified) | 19.1 µg/mL (≈ 65.1 µM)
CCOC(=O)c1[nH]cnc1C(=O)Nc1ccc([N+](=O)[O-])cc1 | 5 µg/mL (≈ 16.4 µM)
CCOc1ccc2c(c1)c1nc3ccccc3nc1n2C | < 0.2 µg/mL
Cc1cccc(C)c1N1CCN(S(=O)(=O)c2ccccc2)CC1 | < 0.4 µg/mL

SMILES | solubility kinetic
Cc1ccccc1N1C(=O)C2C3CCC(O3)C2C1=O (stereo unspecified) | > 38.6 µg/mL
O=C(c1ccc(F)cc1)N1CCC(C(=O)N2CCN(c3ncccn3)CC2)CC1 | 59.2 µg/mL (≈ 149 µM)
COc1ccc(/C=C2\C(=O)NC(=S)N(C)C2=O)cc1C | > 43.6 µg/mL
Cn1c(SCc2ccc(C#N)cc2)nnc1-c1ccncc1 | > 46.1 µg/mL
NC(=O)C1CCCNC1 (stereo unspecified) | > 19.2 µg/mL
N#Cc1ccccc1OCC(=O)NNC(=O)c1ccncc1 | > 44.4 µg/mL
Cc1onc(-c2ccccc2)c1C(=O)NN1CCOCC1 | > 43.1 µg/mL
CC(=O)Nc1ccc(OCC(=O)Nc2ccc(Cl)c(S(=O)(=O)N3CCOCC3)c2)cc1 | 10.7 µg/mL (≈ 22.9 µM)
O=C(O)c1ccc(NCc2ccc(Br)cc2)cc1 | > 45.9 µg/mL
O=C(OCC(=O)N1CCCCCC1)c1ccc([N+](=O)[O-])cc1Cl | 50 µg/mL (≈ 147 µM)
CCCCc1ccc(NC(=O)N[C@@H](C)C(=O)O)cc1 | > 39.6 µg/mL
CCc1ccc(Nc2c([N+](=O)[O-])c(=O)oc3ccccc23)cc1 | 1.4 µg/mL (≈ 4.51 µM)
CC(=O)N/C(=C\c1ccccc1)C(=O)OCC(=O)NC1CCS(=O)(=O)C1 (stereo unspecified) | > 57.1 µg/mL
COc1cccc(C=N[C@@H](CO)[C@@H](O)c2ccc([N+](=O)[O-])cc2)c1O | 50.6 µg/mL (≈ 146 µM)
CCCn1c(N)cc(=O)n(CCC)c1=O | > 31.7 µg/mL
O=S(=O)(c1ccccc1)N1CCCC1c1cccs1 (stereo unspecified) | > 44 µg/mL
COc1ccc(C2CC(=O)C(C=NCCO)=C(O)C2)cc1 (stereo unspecified) | 38 µg/mL (≈ 131 µM)
CCCCC(=O)NC(=S)Nc1cc([N+](=O)[O-])ccc1OC | 0.7 µg/mL (≈ 2.25 µM)
CC(=O)c1cccc(NC(=S)N2CCc3ccccc32)c1 | 3.1 µg/mL (≈ 10.5 µM)
Cc1cccc(CNC(=O)C2CCC(=O)N(C3CCCCCC3)C2)c1 (stereo unspecified) | > 51.4 µg/mL
Cc1ccccc1CN1C(=O)c2ccccc2Sc2ccc(C(=O)O)cc21 | 51.1 µg/mL (≈ 136 µM)
Cc1ccc(N=Cc2ccc(N(C)C)cc2)cc1C | 20.3 µg/mL (≈ 80.4 µM)

SMILES | solubility kinetic
O=S(=O)(NCCC1=CCCCC1)c1ccccc1Cl | 22 µg/mL (≈ 73.4 µM)
Oc1ccccc1CNc1cccc2cccnc12 | 19.3 µg/mL (≈ 77.1 µM)
CCN(CC(=O)NCc1cccs1)C(=O)c1cccc(S(=O)(=O)N2CC(C)OC(C)C2)c1 (stereo unspecified) | > 71.9 µg/mL
O=C(NCCN1CCOCC1)c1ccc(Cl)c(Cl)c1 | 43.5 µg/mL (≈ 143 µM)
O=C(COC(=O)/C=C/c1ccccc1)NC(=O)NC1CCCCC1 | 8.8 µg/mL (≈ 26.6 µM)
COc1ccc(NC(=O)NC2CCCc3ccccc32)cc1 (stereo unspecified) | 1.9 µg/mL (≈ 6.41 µM)
O=C(Nc1nccs1)c1ccccc1Br | 6.2 µg/mL (≈ 21.9 µM)
COc1ccc(CNc2cc(NCCCO)c([N+](=O)[O-])c3nonc23)cc1 | 45.7 µg/mL (≈ 122 µM)
O=[N+]([O-])/C(C(Cl)=C(Cl)Cl)=C1\Nc2ccccc2O1 | > 46.1 µg/mL
CCN(CC)C(=S)Nc1ccc(OC(F)F)cc1 | 40.3 µg/mL (≈ 147 µM)
CCN(CC(=O)N1CCCC1)S(=O)(=O)c1ccc(OC)cc1 | 44.7 µg/mL (≈ 137 µM)
COc1ccc(NC(=O)C2=CN3CCS(=O)(=O)N=C3C=C2)c(OC)c1 | 37.8 µg/mL (≈ 104 µM)
Cc1cnc([N+](=O)[O-])n1CCOC(=O)c1cccc(F)c1 | > 44 µg/mL
Cc1nnc(SC(C)C(=O)NC2CCCCC2)s1 (stereo unspecified) | > 42.8 µg/mL
Cc1cc(C)c(NC(=O)Nc2ccccc2C)c(Cl)c1 | 0.8 µg/mL (≈ 2.77 µM)
O=C(CSc1cccc[n+]1[O-])Nc1ccc(Cl)cc1F | 15.1 µg/mL (≈ 48.3 µM)
O=C(CSc1nc2ccccc2c(=O)[nH]1)Nc1ccccc1O | 3.8 µg/mL (≈ 11.6 µM)
O=C(COC(=O)c1ccc(Br)o1)Nc1ccc(F)cc1[N+](=O)[O-] | 8.2 µg/mL (≈ 21.2 µM)
CCOC(=O)c1sc(=S)n(C)c1NC(=O)c1ccc(OC)cc1 | 9.1 µg/mL (≈ 25.8 µM)
CC1(C)CC(=O)C=C(Nc2ccccc2)C1 | > 32.3 µg/mL
